Reference: the supplement of paper PMC11061612

Experiments:
[1] = system: NCI-N87 (Gastric Carcinoma); assay: combination Emax (second highest fraction inhibited in the dose matrix, 72 h); higher = more inhibition; extreme values may be limits of the assay
Outline: (§1)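 Bliss excess equals the observed combination effect minus the expected value EA + EB − EA·EB, where EA and EB are the effects of each agent alone. Combination Emax is the second-highest inhibition within the matrix. Inhibition was scaled from CellTiter-Glo 2.0 luminescence, with 0 set by vehicle wells and 1 by blank wells, after 72 hours of two-drug dosing of cells plated in 1536-well plates.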

[2] = system: OCUM-1 (Gastric Carcinoma); assay: as above
Outline: as §1

[3] = system: NCI-H513 (Other Solid Carcinomas); assay: as above
Outline: as §1

[4] = system: KYSE-150 (Esophageal Squamous Cell Carcinoma); assay: as above
Outline: as §1

[5] = system: ASH-3 (Thyroid Gland Carcinoma); assay: as above
Outline: as §1

[6] = system: LC4-1 (B-Lymphoblastic Leukemia); assay: as above
Outline: as §1

[7] = system: PFSK-1 (Other Solid Carcinomas); assay: as above
Outline: as §1

[8] = system: NB7 (Neuroblastoma); assay: Bliss excess, mean over the matrix (fraction); higher = more synergy
Outline: as §1

[9] = system: OCUB-M (Breast Carcinoma); assay: as above
Outline: as §1

[10] = system: SCC-9 (Oral Cavity Carcinoma); assay: as above
Outline: as §1

[11] = system: H-EMC-SS (Chondrosarcoma); assay: as above
Outline: as §1

[12] = system: EW-18 (Ewing's Sarcoma); assay: as above
Outline: as §1

[13] = system: ASH-3 (Thyroid Gland Carcinoma); assay: as above
Outline: as §1

[14] = system: BV-173 (Chronic Myelogenous Leukemia); assay: as above
Outline: as §1

[15] = system: NCI-H322M (Lung Adenocarcinoma); assay: as above
Outline: as §1

[16] = system: JHH-7 (Hepatocellular Carcinoma); assay: as above
Outline: as §1

[17] = system: TGBC11TKB (Gastric Carcinoma); assay: as above
Outline: as §1

[18] = system: MFE-319 (Endometrial Carcinoma); assay: as above
Outline: as §1

[19] = system: PFSK-1 (Other Solid Carcinomas); assay: as above
Outline: as §1

[20] = system: VMRC-LCD (Lung Adenocarcinoma); assay: as above
Outline: as §1

SMILES | combination Emax [1] | combination Emax [2] | combination Emax [3] | combination Emax [4] | combination Emax [5] | combination Emax [6] | combination Emax [7] | Bliss excess [8] | Bliss excess [9] | Bliss excess [10] | Bliss excess [11] | Bliss excess [12] | Bliss excess [13] | Bliss excess [14] | Bliss excess [15] | Bliss excess [16] | Bliss excess [17] | Bliss excess [18] | Bliss excess [19] | Bliss excess [20]
CN(CCO)CC[C@H](CSc1ccccc1)Nc1ccc(S(=O)(=O)NC(=O)c2ccc(N3CCC([C@@H](O)c4ccccc4-c4ccc(Cl)cc4)CC3)cc2)cc1S(=O)(=O)C(F)(F)F [AZD4320] + C=CCn1c(=O)c2cnc(Nc3ccc(N4CCN(C)CC4)cc3)nc2n1-c1cccc(C(C)(C)O)n1 [AZD1775] (first compound max 1 µM, partner max 1 µM) | 0.888 | 0.87 | 0.707 | 0.432 | 0.531 | 1 | 0.742 | 0.0051 | 0.075 | -0.0054 | -0.0004 | 0.0349 | 0.0819 | -0.0038 | -0.0521 | 0.0362 | 0.0443 | 0.0537 | 0.0344 | -0.0459
Cc1c2c(nn1C)CSCc1cc(n(C)n1)CSc1cc(c3ccccc3c1)OCCCc1c(C(=O)O)n(C)c3c-2c(Cl)ccc13 [AZD5991] + CC1(C)CCC(CN2CCN(c3ccc(C(=O)NS(=O)(=O)c4ccc(NCC5CCOCC5)c([N+](=O)[O-])c4)c(Oc4cnc5[nH]ccc5c4)c3)CC2)=C(c2ccc(Cl)cc2)C1 [Venetoclax] (first compound max 1 µM, 7x7, partner max 1 µM) | 0.23 | 0.0835 | 0.156 | 0.17 | 0.325 | 1 | 1 | -0.0612 | 0.006 | -0.0278 | 0.0646 | 0.046 | -0.038 | 0.0178 | -0.0378 | 0.0183 | 0.0364 | 0.0377 | 0.0721 | -0.0217
COc1nnc2ccc(N3CCC(c4ccc(OCCN5CCN(C)C(=O)[C@H]5C)cc4)CC3)nn12 [AZD5153] + C[C@@H]1COCCN1C2=NC(=NC(=C2)C3(CC3)[S@](=N)(=O)C)C4=C5C=CNC5=NC=C4 [AZD6738] (first compound max 1 µM, 7x7, partner max 10 µM) | 0.766 | 0.641 | 0.523 | 0.746 | 0.852 | 0.975 | 0.648 | -0.0111 | 0.0415 | 0.0394 | -0.0001 | -0.0306 | -0.025 | -0.0506 | -0.102 | 0.04 | -0.046 | -0.0852 | -0.0115 | 0.0235
Cc1c2c(nn1C)CSCc1cc(n(C)n1)CSc1cc(c3ccccc3c1)OCCCc1c(C(=O)O)n(C)c3c-2c(Cl)ccc13 [AZD5991] + C[C@@H](Nc1cc(F)cc(F)c1)c1cc(C(=O)N(C)C)cc2c(=O)cc(N3CCOCC3)oc12 [AZD8186] (first compound max 1 µM, 7x7, partner max 3 µM) | 0.442 | 0.137 | 0.339 | 0.281 | 0.46 | 0.949 | 0.998 | 0.0187 | -0.0067 | -0.0058 | -0.0325 | 0.0122 | 0.0027 | -0.0917 | 0.0225 | -0.0439 | 0.0005 | 0.0209 | 0.0429 | -0.024
CN(C)CCCOc1ccc(-c2ccc3ncc4c(c3c2)n(C2CCOCC2)c(=O)n4C)cn1 [AZD0156] + O=C(c1cc(Cc2n[nH]c(=O)c3ccccc23)ccc1F)N1CCN(C(=O)C2CC2)CC1 [Olaparib] (first compound max 3 µM, partner max 3 µM) | 0.327 | 0.319 | 0.194 | 0.295 | 0.194 | 0.673 | 0.424 | 0.115 | -0.0091 | 0.0741 | 0.029 | 0.172 | -0.0311 | 0.092 | 0.0142 | 0.117 | -0.0984 | 0.0188 | 0.0954 | -0.0489
C=CCn1c(=O)c2cnc(Nc3ccc(N4CCN(C)CC4)cc3)nc2n1-c1cccc(C(C)(C)O)n1 [AZD1775] + C1CN(CCC1(C(=O)N[C@@H](CCO)C2=CC=C(C=C2)Cl)N)C3=NC=NC4=C3C=CN4 [Capivasertib] (first compound max 3 µM, partner max 3 µM) | 0.689 | 0.707 | 0.494 | 0.727 | 0.519 | 0.884 | 0.893 | -0.0648 | -0.0436 | 0.0038 | -0.0422 | 0.0244 | -0.0086 | 0.0291 | 0.0152 | -0.0045 | -0.0422 | -0.0524 | -0.0268 | -0.0226
CN(CCO)CC[C@H](CSc1ccccc1)Nc1ccc(S(=O)(=O)NC(=O)c2ccc(N3CCC([C@@H](O)c4ccccc4-c4ccc(Cl)cc4)CC3)cc2)cc1S(=O)(=O)C(F)(F)F [AZD4320] + CCN(CCO)CCCOc1ccc2c(Nc3cc(CC(=O)Nc4cccc(F)c4)[nH]n3)ncnc2c1 [AZD2811] (first compound max 1 µM, 7x7, partner max 1 µM) | 0.571 | 0.924 | 0.13 | 0.301 | 0.619 | 1 | 0.319 | 0.0258 | 0.0283 | -0.0115 | 0.0545 | -0.0795 | 0.0577 | -0.0566 | -0.0353 | -0.0085 | 0.0198 | 0.0841 | -0.0176 | -0.0741
CC(=O)c1c(C)c2cnc(Nc3ccc(N4CCNCC4)cn3)nc2n(C2CCCC2)c1=O [Palbociclib] + CC1(C)CCC(CN2CCN(c3ccc(C(=O)NS(=O)(=O)c4ccc(NCC5CCOCC5)c([N+](=O)[O-])c4)c(Oc4cnc5[nH]ccc5c4)c3)CC2)=C(c2ccc(Cl)cc2)C1 [Venetoclax] (first compound max 10 µM, 7x7, partner max 1 µM) | 0.417 | 0 | 0.0783 | 0.455 | 0.283 | 1 | 0.235 | -0.102 | -0.0276 | -0.051 | 0.0118 | 0.0221 | -0.0086 | 0.0021 | -0.0288 | -0.0474 | -0.0901 | -0.0586 | -0.0425 | -0.0377
CC1(C)CCC(CN2CCN(c3ccc(C(=O)NS(=O)(=O)c4ccc(NCC5CCOCC5)c([N+](=O)[O-])c4)c(Oc4cnc5[nH]ccc5c4)c3)CC2)=C(c2ccc(Cl)cc2)C1 [Venetoclax] + CN(C)CCCOc1ccc(-c2ccc3ncc4c(c3c2)n(C2CCOCC2)c(=O)n4C)cn1 [AZD0156] (first compound max 1 µM, 7x7, partner max 1 µM) | 0.461 | 0.284 | 0.21 | 0.237 | 0.229 | 1 | 0.391 | 0.0104 | 0.0289 | -0.0351 | -0.0387 | 0.0697 | -0.0193 | -0.0598 | -0.0103 | -0.032 | -0.0022 | 0.0513 | 0.068 | -0.0333
CC1(C)CCC(CN2CCN(c3ccc(C(=O)NS(=O)(=O)c4ccc(NCC5CCOCC5)c([N+](=O)[O-])c4)c(Oc4cnc5[nH]ccc5c4)c3)CC2)=C(c2ccc(Cl)cc2)C1 [Venetoclax] + C[C@@H]1COCCN1C2=NC(=NC(=C2)C3(CC3)[S@](=N)(=O)C)C4=C5C=CNC5=NC=C4 [AZD6738] (first compound max 1 µM, 7x7, partner max 10 µM) | 0.736 | 0.672 | 0.356 | 0.628 | 0.57 | 1 | 0.685 | -0.0342 | -0.0107 | -0.0433 | -0.0416 | -0.0293 | -0.131 | -0.0634 | -0.0433 | -0.0318 | -0.0273 | -0.0494 | 0.0119 | -0.0393
COc1nnc2ccc(N3CCC(c4ccc(OCCN5CCN(C)C(=O)[C@H]5C)cc4)CC3)nn12 [AZD5153] + C=CCn1c(=O)c2cnc(Nc3ccc(N4CCN(C)CC4)cc3)nc2n1-c1cccc(C(C)(C)O)n1 [AZD1775] (first compound max 1 µM, partner max 1 µM) | 0.717 | 0.511 | 0.437 | 0.666 | 0.742 | 0.941 | 0.744 | -0.0352 | -0.0224 | 0.0175 | -0.0488 | -0.0163 | -0.024 | -0.0256 | -0.106 | -0.0749 | -0.0699 | -0.13 | -0.109 | -0.0025
Cc1c2c(nn1C)CSCc1cc(n(C)n1)CSc1cc(c3ccccc3c1)OCCCc1c(C(=O)O)n(C)c3c-2c(Cl)ccc13 [AZD5991] + C=CCn1c(=O)c2cnc(Nc3ccc(N4CCN(C)CC4)cc3)nc2n1-c1cccc(C(C)(C)O)n1 [AZD1775] (first compound max 1 µM, partner max 1 µM) | 0.727 | 0.38 | 0.532 | 0.634 | 0.339 | 0.986 | 1 | -0.0084 | 0.034 | -0.0123 | 0.0071 | -0.0102 | -0.0243 | -0.072 | -0.023 | 0.0348 | -0.0383 | 0.0074 | -0.0282 | -0.0174
CC1(C)CCC(CN2CCN(c3ccc(C(=O)NS(=O)(=O)c4ccc(NCC5CCOCC5)c([N+](=O)[O-])c4)c(Oc4cnc5[nH]ccc5c4)c3)CC2)=C(c2ccc(Cl)cc2)C1 [Venetoclax] + Cn1cnc2c(F)c(Nc3ccc(Br)cc3Cl)c(C(=O)NOCCO)cc21 [Selumetinib] (first compound max 1 µM, 7x7, partner max 3 µM) | 0.242 | 0.918 | 0.228 | 0.273 | 0.294 | 1 | 0.171 | -0.0252 | -0.0137 | -0.0242 | -0.0381 | -0.104 | -0.0074 | -0.0183 | -0.0124 | -0.0442 | 0.0049 | -0.0034 | -0.0092 | -0.0386
